The source made the active and inactive calls.
Assays:
[1] = system: Vero; experiment: cells; type: functional; details: Chlorocebus sabaeus
[2] = A High Throughput Confirmatory Assay used to Identify Novel Compounds that Inhibit Mycobacterium Tuberculosis in the absence of Glycerol.; type: functional
[3] = microbe, parasite or virus in culture; type: functional; details: Mycobacterium tuberculosis
[4] = enhancers of respiration in Yfh1-depleted yeast, dose response, Friedreich's ataxia, plus single-dose screen (AID 1465); type: functional;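 further: yeast depleted of Yfh1p frataxin homolog grown on glycerol needing respiration; WST-1 tetrazolium dye reduction as measure of cellular dehydrogenase metabolic activity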
[5] = molecular target: T1, Leucine aminopeptidase (Plasmodium falciparum 3D7, UniProt Q8IL11); experiment: P. falciparum M17LAP inhibitors, primary screen, biochemical, fluorogenic H-Leu-NHMec substrate, 1536-well (AID 1619); type: functional
T1 sequence (Q8IL11 whole entry): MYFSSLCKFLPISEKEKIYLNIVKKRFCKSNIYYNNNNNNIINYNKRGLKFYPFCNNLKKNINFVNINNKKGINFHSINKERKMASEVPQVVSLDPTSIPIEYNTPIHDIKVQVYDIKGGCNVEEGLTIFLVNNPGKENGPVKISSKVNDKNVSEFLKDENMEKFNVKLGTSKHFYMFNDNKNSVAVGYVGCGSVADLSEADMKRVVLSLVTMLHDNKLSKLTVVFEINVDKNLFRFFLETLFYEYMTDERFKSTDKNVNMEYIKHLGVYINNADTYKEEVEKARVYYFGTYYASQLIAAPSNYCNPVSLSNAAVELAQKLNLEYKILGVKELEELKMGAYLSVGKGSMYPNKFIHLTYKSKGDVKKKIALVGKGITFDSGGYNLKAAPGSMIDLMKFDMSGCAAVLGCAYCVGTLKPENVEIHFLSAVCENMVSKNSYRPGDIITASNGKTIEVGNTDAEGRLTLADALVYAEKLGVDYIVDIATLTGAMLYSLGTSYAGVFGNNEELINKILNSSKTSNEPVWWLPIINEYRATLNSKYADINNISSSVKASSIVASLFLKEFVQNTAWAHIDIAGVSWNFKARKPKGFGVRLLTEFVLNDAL

[6] = molecular target: Neuropeptide Y receptor type 1 (Homo sapiens, UniProt P25929); type: functional;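 further: HEK293 cells with a CNG channel challenged with NPY then isoproterenol; potency as antagonist that reverses NPY suppression of cAMP signal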
[7] = molecular target: Neuropeptide Y receptor type 2 (Homo sapiens, UniProt P49146); type: functional, cell-based;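 further: HEK293 cells expressing the receptor and a CNG channel; stimulus was NPY near EC95 followed by isoproterenol to raise cAMP; antagonist potency measured as restoring cAMP signal that NPY suppresses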
[8] = molecular target: T2, Short transient receptor potential channel 4 (Mus musculus, UniProt Q9QUQ5); experiment: mouse TRPC4 channel inhibitors, dose response, cell-based, HEK293 TRPC4/mu-opioid, Fluo-4 calcium (AID 434942); type: functional;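 further: potency of inhibitors blocking the TRPC4 calcium response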
T2 sequence (Q9QUQ5 whole entry): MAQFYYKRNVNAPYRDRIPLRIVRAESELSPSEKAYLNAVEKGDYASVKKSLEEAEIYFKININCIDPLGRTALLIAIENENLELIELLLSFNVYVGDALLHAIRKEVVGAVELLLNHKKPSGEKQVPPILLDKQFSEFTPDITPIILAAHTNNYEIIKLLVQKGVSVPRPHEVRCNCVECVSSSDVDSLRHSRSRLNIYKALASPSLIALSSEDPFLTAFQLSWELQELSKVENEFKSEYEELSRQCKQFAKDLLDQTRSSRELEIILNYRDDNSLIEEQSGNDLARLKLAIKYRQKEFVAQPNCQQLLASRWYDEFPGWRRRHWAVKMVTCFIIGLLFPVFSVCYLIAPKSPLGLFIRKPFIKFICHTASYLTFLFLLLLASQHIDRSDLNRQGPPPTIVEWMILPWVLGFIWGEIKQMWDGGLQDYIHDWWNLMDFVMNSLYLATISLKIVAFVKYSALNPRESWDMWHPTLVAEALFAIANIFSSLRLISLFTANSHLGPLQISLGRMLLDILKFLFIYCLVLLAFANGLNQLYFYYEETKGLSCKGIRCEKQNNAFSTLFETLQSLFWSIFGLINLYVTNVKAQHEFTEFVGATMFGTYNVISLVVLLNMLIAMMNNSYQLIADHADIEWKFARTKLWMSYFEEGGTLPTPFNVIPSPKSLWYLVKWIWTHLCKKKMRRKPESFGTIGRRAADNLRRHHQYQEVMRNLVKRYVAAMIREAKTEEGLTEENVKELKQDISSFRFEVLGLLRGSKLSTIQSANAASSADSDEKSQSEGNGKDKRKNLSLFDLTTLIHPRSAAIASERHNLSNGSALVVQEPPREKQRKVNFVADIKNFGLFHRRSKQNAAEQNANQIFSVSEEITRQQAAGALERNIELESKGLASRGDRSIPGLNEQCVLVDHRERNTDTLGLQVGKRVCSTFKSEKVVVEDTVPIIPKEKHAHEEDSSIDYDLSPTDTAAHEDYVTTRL

[9] = molecular target: Dual specificity tyrosine-phosphorylation-regulated kinase 1A (Rattus norvegicus, UniProt Q63470); type: biochemical, Homo sapiens
[10] = molecular target: Mitogen-activated protein kinase 10 (Homo sapiens, UniProt P53779); experiment: Dose response biochemical screening assay for inhibitors of c-Jun N-Terminal Kinase 3 (JNK3). [Related pubchem assays: 746 ]
[11] = system: HEK293; experiment: inhibitors of LMP1-driven NF-kB reporter, dose response, cell-based, HEK293, luciferase, cherry-pick (AID 588343); type: functional; details: Homo sapiens
[12] = molecular target: Protein-tyrosine kinase 2-beta (Homo sapiens, UniProt Q14289);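 further: potency of inhibitors of PYK2 kinase phosphorylation of poly-GT substrate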
[13] = molecular target: Potassium voltage-gated channel subfamily KQT member 2 (Rattus norvegicus, UniProt O88943, W236L); experiment: KCNQ2 channel potentiators, dose response, mechanism study for KCNQ2 potentiator project, cell-based, automated electrophysiology (AID 2603); type: functional
[14] = nonselective inhibitors of cellular cAMP signaling, dose response, counter-screen for MC4R biased antagonist project, cell-based, TR-FRET cAMP detection (AID 602305); type: functional;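 further: U2OS cells stimulated with forskolin near its EC80 as the cAMP inducer; potency is for inhibition of forskolin-stimulated cAMP signaling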
[15] = molecular target: Melanocortin receptor 4 (Homo sapiens, UniProt P32245); experiment: MC4R antagonist potency on cAMP, dose response, cell-based, TR-FRET, biased antagonists (AID 602298); type: functional;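 further: antagonist potency against agonist-stimulated cAMP production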
[16] = Luminescence-based dose response cell-based high throughput screening assay for cytotoxic compounds using the IEC-6 intestinal epithelial cell line. [Related pubchem assays: 1858 (Summary AID.), 1825 (Counterscreen.), 1907 (Confirmation screen.)]; type: functional
[17] = molecular target: Photoreceptor-specific nuclear receptor (Homo sapiens, UniProt Q9Y5X4); type: functional, cell-based;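 further: CHO-S cells with Gal4-NCOR and VP16-NR2E3 two-hybrid luciferase reporter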
[18] = HepG2 cell cytotoxicity, dose response, cytotoxicity control for non-replicating M. tuberculosis project (AID 489018); type: functional; details: Mycobacterium tuberculosis
[19] = system: INS1; experiment: beta cell apoptosis inhibitors, cytokine rescue, dose response, luminescence, retest (AID 449756); type: functional, cell-based; details: Rattus norvegicus;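 further: cell death triggered by IL-1 beta plus TNF-alpha plus IFN-gamma mixture; protective hits raise ATP signal compared with cytokine alone wells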
[20] = cells; type: functional
[21] = molecular target: G-protein coupled receptor 55 (Homo sapiens, UniProt Q9Y2T6); experiment: GPR55 antagonists blocking LPI-driven arrestin recruitment, primary screen, imaging, U2OS, beta-arrestin-GFP, LPI agonist (AID 2013); type: functional;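 further: antagonist potency measured as reduced agonist-driven arrestin aggregation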
[22] = Fluorescence-based cell-based high throughput dose response assay for inhibitors of the interaction of nucleotide-binding oligomerization domain containing 2 (NOD2) and the receptor-interacting serine-threonine kinase 2 (RIPK2).; type: functional; details: Homo sapiens
[23] = Vero E6 cell cytotoxicity, dose response, cytotoxicity control for non-replicating M. tuberculosis project, secondary assay (AID 492998); type: functional, VeroE6; details: Vero C1008
[24] = HeLa cell cytotoxicity, dose response, cytotoxicity control for MgcRacGAP inhibitor project (AID 624300); type: functional
[25] = molecular target: Paired box protein Pax-8 (Homo sapiens, UniProt Q06710); experiment: inhibitors of PAX8-driven TPO luciferase reporter, dose response, RMG-I cells, cherry-pick (AID 687027); type: functional, cell-based;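 further: luciferase reporter driven by Pax8 target thyroperoxidase promoter measured by SteadyGlo luminescence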
[26] = molecular target: T3, Rac GTPase-activating protein 1 (Homo sapiens, UniProt Q9H0H5); experiment: MgcRacGAP GTPase-activating activity inhibitors, confirmation, biochemical, ADP Hunter fluorescence, primary and confirmatory (AID 624330); type: functional
T3 sequence (Q9H0H5 whole entry): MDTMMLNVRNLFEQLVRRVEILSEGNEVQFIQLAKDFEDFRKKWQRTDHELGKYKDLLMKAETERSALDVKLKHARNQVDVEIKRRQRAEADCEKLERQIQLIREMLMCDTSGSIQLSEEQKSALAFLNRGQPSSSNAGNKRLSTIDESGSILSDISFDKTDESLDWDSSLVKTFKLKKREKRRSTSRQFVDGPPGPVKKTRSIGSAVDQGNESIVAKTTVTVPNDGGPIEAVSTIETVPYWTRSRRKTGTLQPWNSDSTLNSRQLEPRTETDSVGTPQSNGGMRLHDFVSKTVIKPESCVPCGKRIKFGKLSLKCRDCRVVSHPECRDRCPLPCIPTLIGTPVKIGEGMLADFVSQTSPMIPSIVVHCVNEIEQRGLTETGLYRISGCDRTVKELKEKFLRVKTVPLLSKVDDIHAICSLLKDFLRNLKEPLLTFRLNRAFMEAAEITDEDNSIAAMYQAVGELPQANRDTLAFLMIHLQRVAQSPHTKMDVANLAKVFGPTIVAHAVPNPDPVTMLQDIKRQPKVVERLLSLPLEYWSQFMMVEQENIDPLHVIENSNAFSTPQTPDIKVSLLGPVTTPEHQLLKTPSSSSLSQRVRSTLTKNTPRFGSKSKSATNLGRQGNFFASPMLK

[27] = THP-1 cell cytotoxicity, dose response, cytotoxicity control for non-replicating M. tuberculosis project (AID 489025); type: functional
[28] = molecular target: Mucolipin-3 (Homo sapiens, UniProt Q8TDD5); experiment: Dose response cell-based high-throughput screening assay for agonists of the transient receptor potential channel ML3 (TRPML3). [Related pubchem assays: 1526, 1424, 1448 ]; type: functional
[29] = molecular target: Ion channel NompC (Danio rerio, UniProt Q7T1G6); experiment: Fluorescence counterscreen assay for TRPML3 agonists: dose response cell-based high-throughput screening assay to identify agonists of the transient receptor potential channel N1 (TRPN1). [Related pubchem assays: 1526, 1424, 1448 ]; type: functional
[30] = molecular target: T4, Streptokinase A (Streptococcus pyogenes serotype M1, UniProt P10520); experiment: Absorbance Microorganism-Based Dose Response Follow up to Identify Inhibitors of Streptokinase Expression. [Related pubchem assays: 1677 (Project Summary), 1915, 1914, 1902 (Retest at Dose), 1900 (Counter Screen), 1662 (Primary HTS)]; type: functional, Streptococcus pyogenes M1 GAS
T4 sequence (P10520 whole entry): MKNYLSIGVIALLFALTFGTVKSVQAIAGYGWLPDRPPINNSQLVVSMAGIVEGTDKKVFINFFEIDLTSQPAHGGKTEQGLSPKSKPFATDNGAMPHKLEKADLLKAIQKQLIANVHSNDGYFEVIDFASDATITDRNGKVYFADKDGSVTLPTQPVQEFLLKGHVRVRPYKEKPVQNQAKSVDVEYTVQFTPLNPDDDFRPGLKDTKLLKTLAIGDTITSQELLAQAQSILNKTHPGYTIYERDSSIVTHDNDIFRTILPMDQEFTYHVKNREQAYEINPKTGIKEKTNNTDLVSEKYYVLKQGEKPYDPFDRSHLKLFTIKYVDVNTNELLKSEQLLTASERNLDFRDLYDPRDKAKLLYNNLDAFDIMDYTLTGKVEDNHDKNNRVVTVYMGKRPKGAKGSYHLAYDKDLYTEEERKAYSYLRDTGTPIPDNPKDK

[31] = system: Streptococcus; experiment: Streptococcus pyogenes growth inhibition counter-screen, dose response, counter-screen for streptokinase expression inhibitor project, luminescence, BacTiter-Glo, strain UMAA2166 (AID 2477); type: functional, organism-based
[32] = cytotoxicity in KRAS-transformed pancreatic duct cells, primary screen, cell-based, fluorescence, HTS (AID 431); type: functional; details: Homo sapiens;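 further: cell line used: HPDE-C7K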
[33] = molecular target: 14-3-3 protein gamma (Homo sapiens, UniProt P61981); experiment: modulators of 14-3-3 gamma client binding – dose response (AID 711); type: functional
[34] = Luminescence Cell-Based Dose Response HTS to Identify Activators of Luciferase Translation or Activity in H4 […] Cells. [Related pubchem assays: 1829 (Project Summary), 1814 (Primary HTS)]; type: functional
[35] = cytotoxicity in HPDE-C7 cells, cell-based, fluorescence, HTS (AID 430); type: functional; details: Homo sapiens
[36] = system: H4; experiment: Luminescence Cell-Based Dose Response HTS to Identify Activators of 5'UTR Stem-Loop Driven Prion Protein mRNA Translation in H4 Neuroglioblastoma Cells. [Related pubchem assays: 1829 (Project Summary), 1814 (Primary HTS)]; type: functional; details: Homo sapiens

Sequence of Melanocortin receptor 4 (P32245 whole entry): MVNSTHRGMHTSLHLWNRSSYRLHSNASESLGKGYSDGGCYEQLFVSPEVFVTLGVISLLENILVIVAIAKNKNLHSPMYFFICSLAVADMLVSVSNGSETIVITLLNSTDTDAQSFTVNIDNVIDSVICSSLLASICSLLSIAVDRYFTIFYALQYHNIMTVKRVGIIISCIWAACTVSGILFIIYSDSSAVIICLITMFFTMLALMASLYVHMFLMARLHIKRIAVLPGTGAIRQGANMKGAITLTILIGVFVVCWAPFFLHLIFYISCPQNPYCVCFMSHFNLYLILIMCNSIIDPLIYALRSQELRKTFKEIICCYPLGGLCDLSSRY
Sequence of Photoreceptor-specific nuclear receptor (Q9Y5X4 whole entry, the tested form may be a part): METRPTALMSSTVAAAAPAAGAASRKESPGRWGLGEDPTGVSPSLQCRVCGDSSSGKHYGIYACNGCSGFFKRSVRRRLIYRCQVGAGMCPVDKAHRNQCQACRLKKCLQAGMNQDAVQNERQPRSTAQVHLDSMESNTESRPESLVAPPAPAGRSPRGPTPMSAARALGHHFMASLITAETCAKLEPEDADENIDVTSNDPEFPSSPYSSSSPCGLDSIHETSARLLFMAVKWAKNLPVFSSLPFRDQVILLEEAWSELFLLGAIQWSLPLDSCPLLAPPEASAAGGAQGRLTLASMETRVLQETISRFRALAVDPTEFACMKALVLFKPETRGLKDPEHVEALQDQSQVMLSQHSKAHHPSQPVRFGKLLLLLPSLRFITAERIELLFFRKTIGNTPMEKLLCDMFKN
Sequence of G-protein coupled receptor 55 (Q9Y2T6 whole entry, the tested form may be a part): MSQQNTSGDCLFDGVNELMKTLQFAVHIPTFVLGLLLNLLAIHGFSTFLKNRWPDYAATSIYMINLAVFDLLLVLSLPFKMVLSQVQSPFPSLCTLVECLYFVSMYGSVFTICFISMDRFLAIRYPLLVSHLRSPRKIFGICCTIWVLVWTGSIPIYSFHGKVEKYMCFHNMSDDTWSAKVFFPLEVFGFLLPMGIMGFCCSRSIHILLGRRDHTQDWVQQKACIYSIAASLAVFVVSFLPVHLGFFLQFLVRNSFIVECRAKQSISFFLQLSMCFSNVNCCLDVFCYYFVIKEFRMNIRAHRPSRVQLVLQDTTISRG
Sequence of Paired box protein Pax-8 (Q06710 whole entry): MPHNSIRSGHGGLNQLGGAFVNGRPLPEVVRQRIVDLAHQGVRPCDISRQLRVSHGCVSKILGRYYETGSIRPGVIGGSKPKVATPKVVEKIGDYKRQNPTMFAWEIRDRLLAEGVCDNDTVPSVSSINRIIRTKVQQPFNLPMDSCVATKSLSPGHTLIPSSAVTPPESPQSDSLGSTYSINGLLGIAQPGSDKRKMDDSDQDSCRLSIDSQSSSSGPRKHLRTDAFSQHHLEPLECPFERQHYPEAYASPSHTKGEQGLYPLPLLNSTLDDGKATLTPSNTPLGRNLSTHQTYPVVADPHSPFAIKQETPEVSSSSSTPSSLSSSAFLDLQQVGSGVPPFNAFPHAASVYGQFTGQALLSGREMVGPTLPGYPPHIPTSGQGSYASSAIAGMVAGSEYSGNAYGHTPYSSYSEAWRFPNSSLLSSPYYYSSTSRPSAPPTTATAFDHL
Sequence of Potassium voltage-gated channel subfamily KQT member 2 (O88943 whole entry W236L): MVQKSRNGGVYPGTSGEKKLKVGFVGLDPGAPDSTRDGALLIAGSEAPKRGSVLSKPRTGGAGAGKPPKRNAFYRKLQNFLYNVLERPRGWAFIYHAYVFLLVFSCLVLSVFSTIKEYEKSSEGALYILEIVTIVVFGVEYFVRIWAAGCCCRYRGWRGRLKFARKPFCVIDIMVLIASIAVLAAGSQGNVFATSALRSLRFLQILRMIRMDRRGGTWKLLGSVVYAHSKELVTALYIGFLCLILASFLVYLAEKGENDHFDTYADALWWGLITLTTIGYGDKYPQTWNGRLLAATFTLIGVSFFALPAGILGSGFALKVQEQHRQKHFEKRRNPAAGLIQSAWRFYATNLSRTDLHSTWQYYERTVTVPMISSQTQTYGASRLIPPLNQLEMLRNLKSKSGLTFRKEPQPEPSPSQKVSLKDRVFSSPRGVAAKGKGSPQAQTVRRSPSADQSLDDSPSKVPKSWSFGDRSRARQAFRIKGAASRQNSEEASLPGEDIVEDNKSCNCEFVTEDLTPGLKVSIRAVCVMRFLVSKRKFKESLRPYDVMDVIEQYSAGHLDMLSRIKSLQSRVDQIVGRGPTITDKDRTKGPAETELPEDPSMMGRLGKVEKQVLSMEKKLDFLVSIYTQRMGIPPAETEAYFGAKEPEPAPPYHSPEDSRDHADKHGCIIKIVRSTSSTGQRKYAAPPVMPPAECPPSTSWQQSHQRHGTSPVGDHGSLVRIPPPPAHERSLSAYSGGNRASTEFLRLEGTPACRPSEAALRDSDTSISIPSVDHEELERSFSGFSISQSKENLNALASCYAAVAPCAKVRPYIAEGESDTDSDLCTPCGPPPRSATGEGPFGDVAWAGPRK
Sequence of Neuropeptide Y receptor type 2 (P49146 whole entry): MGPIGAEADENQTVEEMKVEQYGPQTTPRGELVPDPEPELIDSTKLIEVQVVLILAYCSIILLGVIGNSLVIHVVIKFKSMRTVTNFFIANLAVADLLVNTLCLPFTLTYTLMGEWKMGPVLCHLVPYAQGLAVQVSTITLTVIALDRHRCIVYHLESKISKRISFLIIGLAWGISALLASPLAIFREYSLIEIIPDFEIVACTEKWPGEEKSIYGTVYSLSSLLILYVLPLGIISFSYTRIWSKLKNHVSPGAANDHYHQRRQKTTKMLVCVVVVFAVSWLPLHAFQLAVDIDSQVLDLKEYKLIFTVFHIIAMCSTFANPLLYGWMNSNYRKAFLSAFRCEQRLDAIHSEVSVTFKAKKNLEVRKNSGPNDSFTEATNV
Sequence of Protein-tyrosine kinase 2-beta (Q14289 whole entry): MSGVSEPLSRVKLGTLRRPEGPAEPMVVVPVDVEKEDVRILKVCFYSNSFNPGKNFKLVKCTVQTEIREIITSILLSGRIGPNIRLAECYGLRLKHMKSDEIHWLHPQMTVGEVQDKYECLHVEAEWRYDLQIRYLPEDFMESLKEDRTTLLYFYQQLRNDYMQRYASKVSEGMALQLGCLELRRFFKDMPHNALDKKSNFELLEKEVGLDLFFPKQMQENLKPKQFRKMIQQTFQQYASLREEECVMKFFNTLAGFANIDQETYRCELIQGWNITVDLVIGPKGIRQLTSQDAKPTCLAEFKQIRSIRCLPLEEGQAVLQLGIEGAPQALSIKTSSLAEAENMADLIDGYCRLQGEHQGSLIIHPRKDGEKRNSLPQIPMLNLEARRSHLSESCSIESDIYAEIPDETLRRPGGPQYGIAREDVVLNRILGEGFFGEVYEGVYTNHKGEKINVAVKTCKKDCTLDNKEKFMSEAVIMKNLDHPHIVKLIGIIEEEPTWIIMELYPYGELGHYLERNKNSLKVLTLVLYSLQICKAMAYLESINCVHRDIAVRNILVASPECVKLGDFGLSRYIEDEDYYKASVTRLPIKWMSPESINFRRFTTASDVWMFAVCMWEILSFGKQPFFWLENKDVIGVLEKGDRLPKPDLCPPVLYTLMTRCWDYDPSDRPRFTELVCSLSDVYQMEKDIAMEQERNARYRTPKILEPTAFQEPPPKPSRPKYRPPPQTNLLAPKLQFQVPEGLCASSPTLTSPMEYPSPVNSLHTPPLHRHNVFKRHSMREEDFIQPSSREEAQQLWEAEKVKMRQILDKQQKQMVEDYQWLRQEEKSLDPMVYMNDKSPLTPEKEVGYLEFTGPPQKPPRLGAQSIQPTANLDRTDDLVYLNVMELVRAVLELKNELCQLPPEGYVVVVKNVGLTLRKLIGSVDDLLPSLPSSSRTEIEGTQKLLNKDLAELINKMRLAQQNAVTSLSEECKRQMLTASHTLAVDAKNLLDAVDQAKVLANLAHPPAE
Sequence of Mitogen-activated protein kinase 10 (P53779 whole entry): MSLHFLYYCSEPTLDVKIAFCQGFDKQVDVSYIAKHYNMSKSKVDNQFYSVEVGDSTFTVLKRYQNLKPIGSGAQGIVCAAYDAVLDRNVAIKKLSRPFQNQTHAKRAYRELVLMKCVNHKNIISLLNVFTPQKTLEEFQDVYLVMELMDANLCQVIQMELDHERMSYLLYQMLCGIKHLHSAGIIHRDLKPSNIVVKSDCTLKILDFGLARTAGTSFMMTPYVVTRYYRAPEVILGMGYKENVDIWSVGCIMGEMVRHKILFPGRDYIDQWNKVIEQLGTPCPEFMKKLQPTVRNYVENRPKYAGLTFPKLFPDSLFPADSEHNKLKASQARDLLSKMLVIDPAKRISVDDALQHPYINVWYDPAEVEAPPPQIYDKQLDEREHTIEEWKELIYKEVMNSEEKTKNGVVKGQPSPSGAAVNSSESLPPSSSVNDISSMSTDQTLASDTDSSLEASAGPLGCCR
Sequence of 14-3-3 protein gamma (P61981 whole entry): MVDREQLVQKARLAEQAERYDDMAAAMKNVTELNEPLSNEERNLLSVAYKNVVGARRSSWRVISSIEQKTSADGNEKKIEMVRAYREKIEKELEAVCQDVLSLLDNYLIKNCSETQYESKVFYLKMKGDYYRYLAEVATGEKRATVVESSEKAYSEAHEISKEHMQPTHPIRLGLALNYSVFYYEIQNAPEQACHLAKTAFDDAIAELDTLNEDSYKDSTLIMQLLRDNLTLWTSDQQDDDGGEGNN
Sequence of Neuropeptide Y receptor type 1 (P25929 whole entry): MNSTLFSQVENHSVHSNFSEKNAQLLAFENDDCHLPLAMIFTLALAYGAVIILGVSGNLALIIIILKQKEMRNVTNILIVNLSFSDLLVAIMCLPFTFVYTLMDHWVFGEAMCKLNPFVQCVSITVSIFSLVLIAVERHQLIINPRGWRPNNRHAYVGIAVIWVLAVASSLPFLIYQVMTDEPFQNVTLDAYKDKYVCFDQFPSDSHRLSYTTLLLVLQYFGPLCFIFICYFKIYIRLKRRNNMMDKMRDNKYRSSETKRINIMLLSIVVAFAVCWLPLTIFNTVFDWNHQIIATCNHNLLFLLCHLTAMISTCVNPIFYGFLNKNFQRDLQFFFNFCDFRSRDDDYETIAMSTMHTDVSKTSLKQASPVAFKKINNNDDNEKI

## CC(C(Sc1ccccc1N)c1ccccc1)[N+](=O)[O-] (centres undefined)
[1]
  CC50: 16.6 µM (active)
[2]
  IC50: > 100 µM (active)
[3]
  CC50: 32.6 µM (active)

## N#C/C(=C\c1ccc(N2CCOCC2)o1)C(=O)N1CCOCC1
[4]
  EC50: > 100 µM (active)
[5]
  IC50: 99.7 µM (active)

## Cc1cccc(NC(S)=NN=C(S)NCc2ccccc2)c1
[6]
  IC50: > 35 µM (not active)
[7]
  IC50: > 35 µM (not active)

## COC(=O)c1cccc2c1-c1ccccc1/C2=N/O
[8]
  EC50: 2.99 µM (active)
[9]
  AC50: 0.434 µM (active)
[10]
  IC50: 8.81 µM (active)
[11]
  AC50: 28 µM (active)
[12]
  IC50: 6.71 µM (active)

## COC(=O)CSc1[nH]c2ccc(F)cc2c1[N+](=O)[O-]
[13]
  EC50: 0.17 µM (active)
[14]
  IC50: > 64.6 µM (inactive)
[15]
  IC50: > 64.6 µM (inactive)

## CN1C2CCC1/C(=C/c1ccccn1)C(=O)/C2=C\c1ccccn1
[16]
  IC50: 1.76 µM (active)
[17]
  IC50: 1.73 µM (active)
[18]
  CC50: 1.49 µM (active)
[3]
  CC50: 1.69 µM (active)
[19]
  AC50: 1.59 µM (active)
[20]
  IC50: 7.83 µM (active)
[21]
  IC50: 3.25 µM (active)
[22]
  IC50: 2.58 µM (active)
[23]
  CC50: 1.06 µM (active)
[24]
  CC50: 12.5 µM (active)
[25]
  AC50: 0.852 µM (active)
[26]
  IC50: 62.5 µM (active)
[27]
  CC50: 0.894 µM (active)

## COC(=O)c1c(NC(=O)COC(=O)[C@@H](NS(=O)(=O)c2ccc(C)cc2)C(C)C)sc2c1CCC2
[28]
  EC50: 2.8 µM (active)
[29]
  EC50: > 29.9 µM (not active)

## Cc1ccc(Sc2ccc(NC(=O)c3ccc(F)cc3)cc2C#N)cc1
[30]
  EC50: > 500 µM (not active)
[31]
  EC50: > 500 µM (not active)
[14]
  IC50: > 64.6 µM (inactive)
[15]
  IC50: > 64.6 µM (inactive)

## Cc1csc(NC(=O)CSc2nsc(SCC(=O)Nc3nc(C)cs3)c2C#N)n1
[32]
  EC50: 11 µM (active)
[33]
  IC50: > 50 µM (not active)
[34]
  EC50: 1.86 µM (active)
[35]
  EC50: 12.4 µM (active)
[36]
  EC50: > 120 µM (not active)

Source: ChEMBL document CHEMBL1201862, “PubChem BioAssay data set” (2004)
